Test: Henry solubility constant Hcp at 298.15 K (mol/(m3 Pa))
Details: reference: Mackay and Shiu (1981)

Row | SMILES | Henry solubility constant Hcp
1 | Clc1cc(Cl)c(Cl)c(Cl)c1 [1,2,3,5-tetrachlorobenzene] | 0.0063
2 | Clc1cccc(Cl)c1Cl [1,2,3-trichlorobenzene] | 0.0079
3 | Clc1ccc2ccccc2c1 [2-chloronaphthalene] | 0.031
4 | Cc1cccc2ccccc12 [1-methylnaphthalene] | 0.038
5 | Clc1cccc2ccccc12 [1-chloronaphthalene] | 0.0028
6 | c1ccc2cc3ccccc3cc2c1 [anthracene] | 0.014
7 | Brc1ccccc1 [bromobenzene] | 0.004
8 | Clc1ccccc1 [chlorobenzene] | 0.0032
9 | c1ccc2c(c1)Cc1ccccc1-2 [2,3-benzindene] | 0.099
10 | c1cc2c3c(cccc3c1)CC2 [acenaphthene] | 0.0064
11 | c1ccc(-c2ccccc2)cc1 [biphenyl] | 0.033
12 | Clc1ccc(Cl)cc1 [1,4-dichlorobenzene] | 0.0042
13 | c1ccc2c(c1)ccc1ccccc12 [phenanthrene] | 0.27

Source: Sander's compilation of Henry's law constants (doi:10.1063/1.555654)
